Laboratory results published in ChEMBL document CHEMBL1909046, “DrugMatrix in vitro pharmacology data”.

Tests used:
[1] = DRUGMATRIX: Phorbol Ester radioligand binding (ligand: [3H] PDBu); format: cell membranes, Mus musculus, ICR, Brain, Membrane; conditions: Not Active = under 50% inhibition at 10 µM
[2] = molecular target: T1, Calcitonin receptor (Homo sapiens, UniProt P30988); format: cell membranes, Membrane; conditions: t47d; further: in other assays of this panel Not Active means under 50% inhibition at 10 µM
T1 sequence (P30988 whole entry): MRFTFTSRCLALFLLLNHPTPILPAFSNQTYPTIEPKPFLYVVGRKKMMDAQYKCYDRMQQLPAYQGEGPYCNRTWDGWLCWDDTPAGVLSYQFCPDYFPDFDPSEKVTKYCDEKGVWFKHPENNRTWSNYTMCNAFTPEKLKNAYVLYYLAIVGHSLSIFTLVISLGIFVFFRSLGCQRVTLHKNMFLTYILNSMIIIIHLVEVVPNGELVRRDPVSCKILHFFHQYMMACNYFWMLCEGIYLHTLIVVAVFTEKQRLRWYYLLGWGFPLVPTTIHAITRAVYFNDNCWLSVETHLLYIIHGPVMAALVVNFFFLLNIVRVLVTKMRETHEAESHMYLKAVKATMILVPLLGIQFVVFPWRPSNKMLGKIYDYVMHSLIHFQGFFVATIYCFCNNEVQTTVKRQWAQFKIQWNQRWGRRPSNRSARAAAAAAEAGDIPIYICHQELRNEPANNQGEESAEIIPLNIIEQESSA

[3] = molecular target: T2, Receptor-type tyrosine-protein phosphatase C (Homo sapiens, UniProt P08575); design: species or system Escherichia coli;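 further: inhibition of CD45 enzyme activity measured using DiFMUP as substrate; in other assays of this panel Not Active means under 50% inhibition at 10 µM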
T2 sequence (P08575 whole entry): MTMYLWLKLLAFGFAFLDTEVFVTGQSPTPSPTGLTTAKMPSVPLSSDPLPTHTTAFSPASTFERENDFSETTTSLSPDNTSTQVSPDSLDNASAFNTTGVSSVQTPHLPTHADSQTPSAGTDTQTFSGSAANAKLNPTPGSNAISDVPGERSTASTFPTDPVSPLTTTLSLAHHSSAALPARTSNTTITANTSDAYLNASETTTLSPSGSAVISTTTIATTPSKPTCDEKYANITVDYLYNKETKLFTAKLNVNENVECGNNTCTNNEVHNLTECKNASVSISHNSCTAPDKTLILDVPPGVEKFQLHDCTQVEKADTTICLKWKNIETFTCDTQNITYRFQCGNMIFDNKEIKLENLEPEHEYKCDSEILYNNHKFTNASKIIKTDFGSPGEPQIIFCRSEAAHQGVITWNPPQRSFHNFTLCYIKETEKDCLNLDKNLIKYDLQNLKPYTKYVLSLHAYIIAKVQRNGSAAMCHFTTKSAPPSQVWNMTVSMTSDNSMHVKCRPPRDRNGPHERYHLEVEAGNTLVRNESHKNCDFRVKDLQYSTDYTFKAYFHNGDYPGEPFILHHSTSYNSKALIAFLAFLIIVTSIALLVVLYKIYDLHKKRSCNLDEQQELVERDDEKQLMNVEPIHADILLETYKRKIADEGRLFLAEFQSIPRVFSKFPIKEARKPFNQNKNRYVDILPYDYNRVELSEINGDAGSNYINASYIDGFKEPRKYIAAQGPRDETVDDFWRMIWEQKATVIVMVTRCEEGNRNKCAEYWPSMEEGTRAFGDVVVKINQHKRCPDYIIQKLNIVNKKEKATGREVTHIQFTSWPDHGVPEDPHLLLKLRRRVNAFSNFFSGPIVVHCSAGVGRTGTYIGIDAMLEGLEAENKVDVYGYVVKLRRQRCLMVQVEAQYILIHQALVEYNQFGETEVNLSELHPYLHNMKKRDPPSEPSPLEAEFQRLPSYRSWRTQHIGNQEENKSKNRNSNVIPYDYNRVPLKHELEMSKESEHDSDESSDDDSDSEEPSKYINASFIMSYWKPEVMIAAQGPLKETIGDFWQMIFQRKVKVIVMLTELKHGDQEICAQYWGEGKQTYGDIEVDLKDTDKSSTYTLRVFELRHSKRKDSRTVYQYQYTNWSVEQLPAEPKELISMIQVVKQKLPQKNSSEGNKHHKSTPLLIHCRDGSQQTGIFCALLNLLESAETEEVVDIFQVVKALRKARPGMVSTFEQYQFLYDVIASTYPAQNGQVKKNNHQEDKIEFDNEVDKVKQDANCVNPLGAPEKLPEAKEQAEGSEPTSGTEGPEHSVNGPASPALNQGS

[4] = DRUGMATRIX: GABAA, Muscimol, Central radioligand binding (ligand: [3H] Muscimol); format: cell membranes, Rattus norvegicus, Wistar, Brain, Membrane; conditions: Not Active = under 50% inhibition at 10 µM
[5] = DRUGMATRIX: Calcium Channel Type L, Dihydropyridine radioligand binding (ligand: [3H] Nitrendipine); format: cell membranes, Rattus norvegicus, Wistar, Cerebral cortex, Membrane; conditions: Not Active = under 50% inhibition at 10 µM
[6] = molecular target: Beta-2 adrenergic receptor (Homo sapiens, UniProt P07550); experiment: DRUGMATRIX: Adrenergic beta2 radioligand binding (ligand: [3H] CGP-12177); format: cell membranes, CHO, Membrane; conditions: cho; Not Active = under 50% inhibition at 10 µM
[7] = molecular target: T3, Interstitial collagenase (Homo sapiens, UniProt P03956); experiment: biochemical; format: tissue-based, Rheumatoid synovial fibroblasts;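 further: MMP-1 enzyme inhibition assay using a peptide substrate; in other assays of this panel Not Active means under 50% inhibition at 10 µM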
T3 sequence (P03956 whole entry): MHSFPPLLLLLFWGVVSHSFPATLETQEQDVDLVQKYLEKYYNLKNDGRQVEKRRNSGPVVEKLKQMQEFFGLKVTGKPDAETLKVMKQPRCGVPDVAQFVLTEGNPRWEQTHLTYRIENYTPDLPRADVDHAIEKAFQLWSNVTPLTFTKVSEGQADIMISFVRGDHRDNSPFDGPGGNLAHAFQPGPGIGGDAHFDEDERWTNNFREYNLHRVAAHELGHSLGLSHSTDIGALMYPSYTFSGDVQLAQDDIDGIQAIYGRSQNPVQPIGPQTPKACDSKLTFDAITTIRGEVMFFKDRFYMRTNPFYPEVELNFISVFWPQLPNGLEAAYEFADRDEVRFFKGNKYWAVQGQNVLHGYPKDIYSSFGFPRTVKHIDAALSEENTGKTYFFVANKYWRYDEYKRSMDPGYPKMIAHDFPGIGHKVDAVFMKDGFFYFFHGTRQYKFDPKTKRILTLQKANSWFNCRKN

[8] = molecular target: Platelet-activating factor receptor (Homo sapiens, UniProt P25105); format: tissue-based; further: in other assays of this panel Not Active means under 50% inhibition at 10 µM
[9] = DRUGMATRIX: ATPase, Na+/K+ enzyme inhibition (substrate: ATP); format: tissue-based, Sus scrofa, Heart; conditions: Not Active = under 50% inhibition at 10 µM

Sequence of Platelet-activating factor receptor (P25105 whole entry): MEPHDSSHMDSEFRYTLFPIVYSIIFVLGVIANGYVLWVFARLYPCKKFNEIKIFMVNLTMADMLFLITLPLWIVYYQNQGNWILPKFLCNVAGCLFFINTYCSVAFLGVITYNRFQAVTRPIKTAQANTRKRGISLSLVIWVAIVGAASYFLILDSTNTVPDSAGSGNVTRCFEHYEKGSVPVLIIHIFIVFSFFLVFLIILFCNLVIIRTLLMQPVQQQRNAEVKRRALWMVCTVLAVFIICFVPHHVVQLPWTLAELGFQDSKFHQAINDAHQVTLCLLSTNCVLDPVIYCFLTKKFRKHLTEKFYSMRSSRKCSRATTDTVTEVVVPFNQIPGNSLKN
Sequence of Beta-2 adrenergic receptor (P07550 whole entry): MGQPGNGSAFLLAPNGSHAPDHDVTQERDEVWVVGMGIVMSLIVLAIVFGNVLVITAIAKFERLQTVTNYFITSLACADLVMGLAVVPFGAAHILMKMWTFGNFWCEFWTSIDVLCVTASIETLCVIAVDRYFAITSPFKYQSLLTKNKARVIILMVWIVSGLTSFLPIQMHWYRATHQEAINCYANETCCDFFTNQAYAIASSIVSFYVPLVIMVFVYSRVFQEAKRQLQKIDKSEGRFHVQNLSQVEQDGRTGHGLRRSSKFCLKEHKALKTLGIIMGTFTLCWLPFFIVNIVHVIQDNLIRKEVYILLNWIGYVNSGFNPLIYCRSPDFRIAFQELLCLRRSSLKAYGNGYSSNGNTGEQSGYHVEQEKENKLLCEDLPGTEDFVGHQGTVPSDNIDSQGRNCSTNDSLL

CO[C@@H]1[C@@H](OC)[C@H](C)[C@@](O)(CC(=O)O)O[C@H]1[C@H](C)[C@H]1O[C@@]2(CC[C@@](C)([C@H]3CC[C@@](C)([C@@H]4O[C@@H]([C@H]5O[C@](C)(O)[C@H](C)C[C@@H]5C)C[C@@H]4O[C@@H]4C[C@H](OC)[C@@H](OC)[C@H](C)O4)O3)O2)C[C@H](O)[C@H]1C [MADURAMICIN ACID]
Not Active: IC50 [1] | Ki [1] | IC50 [2] | IC50 [3] | IC50 [4] | Ki [4] | IC50 [5] | Ki [5] | IC50 [6] | IC50 [7] | IC50 [8] | IC50 [9] | Ki [9]

COc1c2occc2cc2ccc(=O)oc12 [METHOXSALEN]
Not Active: IC50 [1] | Ki [1] | IC50 [2] | IC50 [3] | IC50 [4] | Ki [4] | IC50 [5] | Ki [5] | IC50 [6] | IC50 [7] | IC50 [8] | IC50 [9] | Ki [9]

C[C@H]1C[C@@H]2[C@H]([C@@H](O)C[C@@]3(C)[C@H]2CC[C@]3(O)C(=O)CO)[C@@]2(C)C=CC(=O)C=C12 [METHYLPREDNISOLONE]
Not Active: IC50 [1] | Ki [1] | IC50 [2] | IC50 [3] | IC50 [4] | Ki [4] | IC50 [5] | Ki [5] | IC50 [6] | IC50 [7] | IC50 [8] | IC50 [9] | Ki [9]

Cc1cccc(C)c1OCC(C)N (centres undefined) [MEXILETINE]
Not Active: IC50 [1] | Ki [1] | IC50 [2] | IC50 [3] | IC50 [4] | Ki [4] | IC50 [5] | Ki [5] | IC50 [6] | IC50 [7] | IC50 [8] | IC50 [9] | Ki [9]

Nc1cc(N2CCCCC2)nc(N)[n+]1[O-] [MINOXIDIL]
Not Active: IC50 [1] | Ki [1] | IC50 [2] | IC50 [3] | IC50 [4] | Ki [4] | IC50 [5] | Ki [5] | IC50 [6] | IC50 [7] | IC50 [8] | IC50 [9] | Ki [9]

CO[C@H]1/C=C/O[C@@]2(C)Oc3c(C)c(O)c4c(O)c(c(/C=N/N5CCN(C6CCCC6)CC5)c(O)c4c3C2=O)NC(=O)/C(C)=C\C=C\[C@H](C)[C@H](O)[C@@H](C)[C@@H](O)[C@@H](C)[C@H](OC(C)=O)[C@@H]1C [RIFAPENTINE]
Not Active: IC50 [1] | Ki [1] | IC50 [2] | IC50 [3] | IC50 [4] | Ki [4] | IC50 [5] | Ki [5] | IC50 [6] | IC50 [7] | IC50 [8] | IC50 [9] | Ki [9]

CCCCOc1cc(CC2CNC(=O)N2)ccc1OC (centres undefined) [RO-201724]
Not Active: IC50 [1] | Ki [1] | IC50 [2] | IC50 [3] | IC50 [4] | Ki [4] | IC50 [5] | Ki [5] | IC50 [6] | IC50 [7] | IC50 [8] | IC50 [9] | Ki [9]

CC[C@@H](C(=O)[C@@H](C)[C@@H](O)[C@H](C)[C@@H]1O[C@@H]([C@@H](CC)C(=O)O)CC[C@@H]1C)[C@H]1O[C@]2(C=C[C@@H](O)[C@]3(CC[C@@](C)([C@H]4CC[C@](O)(CC)[C@H](C)O4)O3)O2)[C@H](C)C[C@@H]1C [SALINOMYCIN]
Not Active: IC50 [1] | Ki [1] | IC50 [2] | IC50 [3] | IC50 [4] | Ki [4] | IC50 [5] | Ki [5] | IC50 [6] | IC50 [7] | IC50 [8] | IC50 [9] | Ki [9]

O=C(Oc1ccccc1C(=O)O)c1ccccc1O [SALSALATE]
Not Active: IC50 [1] | Ki [1] | IC50 [2] | IC50 [3] | IC50 [4] | Ki [4] | IC50 [5] | Ki [5] | IC50 [6] | IC50 [7] | IC50 [8] | IC50 [9] | Ki [9]

O=C(O)c1cn(-c2ccc(F)cc2)c2cc(N3CCNCC3)c(F)cc2c1=O [SARAFLOXACIN]
Not Active: IC50 [1] | Ki [1] | IC50 [2] | IC50 [3] | IC50 [4] | Ki [4] | IC50 [5] | Ki [5] | IC50 [6] | IC50 [7] | IC50 [8] | IC50 [9] | Ki [9]

O.O.O.O.O.O.[Cl-].[Cl-].[Sr+2] [STRONTIUM CHLORIDE HEXAHYDRATE]
Not Active: IC50 [1] | Ki [1] | IC50 [2] | IC50 [3] | IC50 [4] | Ki [4] | IC50 [5] | Ki [5] | IC50 [6] | IC50 [7] | IC50 [8] | IC50 [9] | Ki [9]

O=C1C(CC[S+]([O-])c2ccccc2)C(=O)N(c2ccccc2)N1c1ccccc1 (centres undefined) [SULFINPYRAZONE]
Not Active: IC50 [1] | Ki [1] | IC50 [2] | IC50 [3] | IC50 [4] | Ki [4] | IC50 [5] | Ki [5] | IC50 [6] | IC50 [7] | IC50 [8] | IC50 [9] | Ki [9]

NC(=O)N1C(=O)/C(=C(\O)c2cccs2)c2cc(Cl)ccc21 [TENIDAP]
Not Active: IC50 [1] | Ki [1] | IC50 [2] | IC50 [3] | IC50 [4] | Ki [4] | IC50 [5] | Ki [5] | IC50 [6] | IC50 [7] | IC50 [8] | IC50 [9] | Ki [9]
